Experimental findings from patent US10392391B2 (Vertex Pharmaceuticals Incorporated, priority 2012, dated 2019) are described below.

Sequence of ATR kinase (full-length ATR) (Q13535 whole entry): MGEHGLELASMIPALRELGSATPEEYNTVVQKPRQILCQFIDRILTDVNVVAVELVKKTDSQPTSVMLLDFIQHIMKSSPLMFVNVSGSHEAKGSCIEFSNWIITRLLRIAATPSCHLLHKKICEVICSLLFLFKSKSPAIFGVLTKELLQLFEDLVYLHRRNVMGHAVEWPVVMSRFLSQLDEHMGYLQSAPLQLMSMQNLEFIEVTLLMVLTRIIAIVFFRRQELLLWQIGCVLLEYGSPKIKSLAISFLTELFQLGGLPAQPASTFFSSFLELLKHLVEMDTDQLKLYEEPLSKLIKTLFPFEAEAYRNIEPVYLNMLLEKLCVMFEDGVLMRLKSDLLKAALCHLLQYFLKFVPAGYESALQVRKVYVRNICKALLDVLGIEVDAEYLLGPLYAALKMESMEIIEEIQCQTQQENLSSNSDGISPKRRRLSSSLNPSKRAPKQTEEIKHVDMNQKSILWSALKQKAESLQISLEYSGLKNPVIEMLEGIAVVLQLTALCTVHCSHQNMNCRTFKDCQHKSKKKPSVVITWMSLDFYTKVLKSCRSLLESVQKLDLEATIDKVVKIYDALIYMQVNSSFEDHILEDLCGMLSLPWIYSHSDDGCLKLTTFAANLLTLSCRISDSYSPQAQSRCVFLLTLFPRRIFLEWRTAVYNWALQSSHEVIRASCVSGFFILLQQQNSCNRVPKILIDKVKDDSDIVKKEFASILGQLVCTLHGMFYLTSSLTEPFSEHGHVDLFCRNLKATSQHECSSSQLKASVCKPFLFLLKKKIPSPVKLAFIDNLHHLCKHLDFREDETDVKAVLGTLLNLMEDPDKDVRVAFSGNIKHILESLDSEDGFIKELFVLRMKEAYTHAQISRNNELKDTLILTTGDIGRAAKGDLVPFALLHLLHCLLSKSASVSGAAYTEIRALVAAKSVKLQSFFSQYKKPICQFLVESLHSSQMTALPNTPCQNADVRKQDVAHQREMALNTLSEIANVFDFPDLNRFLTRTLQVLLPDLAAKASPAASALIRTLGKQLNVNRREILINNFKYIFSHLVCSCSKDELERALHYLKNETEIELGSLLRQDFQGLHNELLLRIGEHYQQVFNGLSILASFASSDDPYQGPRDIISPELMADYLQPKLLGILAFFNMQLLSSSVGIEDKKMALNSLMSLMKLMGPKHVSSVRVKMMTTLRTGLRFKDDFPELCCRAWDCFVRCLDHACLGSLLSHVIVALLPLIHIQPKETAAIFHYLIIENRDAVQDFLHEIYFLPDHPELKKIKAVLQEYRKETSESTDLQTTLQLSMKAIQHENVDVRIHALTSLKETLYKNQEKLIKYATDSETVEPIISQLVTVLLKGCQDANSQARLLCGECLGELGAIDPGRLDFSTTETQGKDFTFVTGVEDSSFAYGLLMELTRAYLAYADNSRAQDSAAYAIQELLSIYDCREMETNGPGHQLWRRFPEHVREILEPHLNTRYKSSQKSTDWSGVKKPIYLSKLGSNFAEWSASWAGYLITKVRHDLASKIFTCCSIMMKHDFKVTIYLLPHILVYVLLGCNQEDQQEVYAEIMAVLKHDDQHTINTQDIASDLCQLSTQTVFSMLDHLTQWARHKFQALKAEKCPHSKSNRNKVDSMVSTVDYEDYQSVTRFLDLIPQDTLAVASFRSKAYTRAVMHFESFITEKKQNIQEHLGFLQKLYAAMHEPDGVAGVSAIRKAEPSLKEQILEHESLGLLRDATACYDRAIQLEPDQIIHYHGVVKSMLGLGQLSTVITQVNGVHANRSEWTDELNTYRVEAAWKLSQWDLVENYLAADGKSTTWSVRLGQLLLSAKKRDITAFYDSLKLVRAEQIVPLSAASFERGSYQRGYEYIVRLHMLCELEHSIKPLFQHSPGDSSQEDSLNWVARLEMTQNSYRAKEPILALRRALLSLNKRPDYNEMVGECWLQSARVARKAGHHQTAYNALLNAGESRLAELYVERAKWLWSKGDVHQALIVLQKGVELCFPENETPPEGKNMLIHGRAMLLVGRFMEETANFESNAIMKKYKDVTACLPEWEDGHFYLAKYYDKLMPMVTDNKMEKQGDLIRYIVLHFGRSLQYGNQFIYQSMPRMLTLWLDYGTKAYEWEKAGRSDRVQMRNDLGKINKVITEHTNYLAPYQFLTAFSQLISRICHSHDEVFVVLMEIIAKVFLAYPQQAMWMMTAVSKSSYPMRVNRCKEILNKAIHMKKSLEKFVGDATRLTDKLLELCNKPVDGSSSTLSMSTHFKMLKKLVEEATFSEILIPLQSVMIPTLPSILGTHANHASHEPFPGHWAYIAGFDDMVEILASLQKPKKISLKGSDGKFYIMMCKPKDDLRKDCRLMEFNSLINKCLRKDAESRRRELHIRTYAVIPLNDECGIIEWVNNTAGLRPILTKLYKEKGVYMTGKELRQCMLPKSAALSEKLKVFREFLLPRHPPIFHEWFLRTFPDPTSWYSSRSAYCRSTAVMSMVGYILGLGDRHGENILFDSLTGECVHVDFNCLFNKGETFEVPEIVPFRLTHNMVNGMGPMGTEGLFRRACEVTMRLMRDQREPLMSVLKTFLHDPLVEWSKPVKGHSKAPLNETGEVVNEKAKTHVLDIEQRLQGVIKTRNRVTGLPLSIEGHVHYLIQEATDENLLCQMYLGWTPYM

This assay has as its target ATR kinase (full-length ATR) (Homo sapiens (Human), UniProt Q13535). In words: ATR inhibition assay (radioactive-phosphate incorporation). It is filed as biochemical. The settings on record: Ki(app), 5 nM full-length ATR, 10 μM ATP, 25° C. The method, then:
Compounds were screened for their ability to inhibit ATR kinase using a radioactive-phosphate incorporation assay. Assays were carried out in a mixture of 50 mM Tris/HCl (pH 7.5), 10 mM MgCl2 and 1 mM DTT. Final substrate concentrations were 10 μM [γ-33P]ATP (3mCi 33P ATP/mmol ATP, Perkin Elmer) and 800 μM target peptide ([…]) (SEQ ID NO:1).
Assays were carried out at 25° C. in the presence of 5 nM full-length ATR. An assay stock buffer solution was prepared containing all of the reagents listed above, with the exception of ATP and the test compound of interest. 13.5 μL of the stock solution was placed in a 96 well plate followed by addition of 2 μL of DMSO stock containing serial dilutions of the test compound (typically starting from a final concentration of 15 μM with 3-fold serial dilutions) in duplicate (final DMSO concentration 7%). The plate was pre-incubated for 10 minutes at 25° C. and the reaction initiated by addition of 15 μL [γ-33P]ATP (final concentration 10 μM).
The reaction was stopped after […] by the addition of 30 μL 0.1M phosphoric acid containing 2 mM ATP. A multiscreen phosphocellulose filter 96-well plate (Millipore, Cat no. MAPHN0B50) was pretreated with 100 μL 0.2M phosphoric acid prior to the addition of […] of the stopped assay mixture. The plate was washed with 5×200 μL 0.2M phosphoric acid. After drying, 100 μL Optiphase ‘SuperMix’ liquid scintillation cocktail (Perkin Elmer) was added to the well prior to scintillation counting (1450 Microbeta Liquid Scintillation Counter, Wallac).
After removing mean background values for all of the data points, Ki(app) data were calculated from non-linear regression analysis of the initial rate data using the Prism software package (GraphPad Prism version 3.0cx for Macintosh, GraphPad Software, San Diego Calif., USA).
`Nc1nn2cc(F)cnc2c1C(=O)Nc1cncc(F)c1N1CCC(C(=O)N2CCOCC2)CC1` [I-G-36, 2-amino-6-fluoro-N-(5-fluoro-4-(4-(morpholine-4-carbonyl)piperidin-1-yl)pyridin-3-yl)pyrazolo[1,5-a]pyrimidine-3-carboxamide]: the Ki was in the range of 10 to 1000 nM.

`CN1CCN(c2ccncc2NC(=O)c2c(N)nn3cc(F)cnc23)CC1` [I-N-3, 2-amino-6-fluoro-N-(4-(4-methylpiperazin-1-yl)pyridin-3-yl)pyrazolo[1,5-a]pyrimidine-3-carboxamide]: the Ki was in the range of 10 to 1000 nM.

Regarding `N#CCc1cnc2c(C(=O)Nc3cnccc3OC3COC3)c(N)nn2c1` [I-O-38, 2-amino-6-(cyanomethyl)-N-(4-(oxetan-3-yloxy)pyridin-3-yl)pyrazolo[1,5-a]pyrimidine-3-carboxamide], the Ki is below 10 nM.

For the molecule `Cc1nnc(N2CCN(c3ccncc3NC(=O)c3c(N)nn4cc(F)cnc34)CC2)o1` [I-N-256, 2-amino-6-fluoro-N-(4-(4-(5-methyl-1,3,4-oxadiazol-2-yl)piperazin-1-yl)pyridin-3-yl)pyrazolo[1,5-a]pyrimidine-3-carboxamide], the Ki lay within 10 to 1000 nM.

For the molecule `Cc1ncccc1-c1ccncc1NC(=O)c1c(N)nn2cc(F)cnc12` [I-C-20, 2-amino-6-fluoro-N-(2-methyl-[3,4′-bipyridin]-3′-yl)pyrazolo[1,5-a]pyrimidine-3-carboxamide], the Ki fell in the range of 10 to 1000 nM.

With `Cc1ccnnc1-c1ccncc1NC(=O)c1c(N)nn2cc(F)cnc12` [I-C-33, 2-amino-6-fluoro-N-(4-(4-methylpyridazin-3-yl)pyridin-3-yl)pyrazolo[1,5-a]pyrimidine-3-carboxamide], the Ki lay within 10 to 1000 nM.

For the molecule `Nc1nn2cc(F)cnc2c1C(=O)Nc1cnccc1-c1ccc(C(=O)N2CCN3CCC2CC3)cc1` [I-C-48, N-(4-(4-(1,4-diazabicyclo[3.2.2]nonane-4-carbonyl)phenyl)pyridin-3-yl)-2-amino-6-fluoropyrazolo[1,5-a]pyrimidine-3-carboxamide], the Ki fell in the range of 10 to 1000 nM.

Take `COC1CN(C2CCN(c3ccncc3NC(=O)c3c(N)nn4cc(Cl)cnc34)CC2)C1` [I-N-107, 2-amino-6-chloro-N-(4-(4-(3-methoxyazetidin-1-yl)piperidin-1-yl)pyridin-3-yl)pyrazolo[1,5-a]pyrimidine-3-carboxamide]: the Ki was in the range of 10 to 1000 nM.

As for `COc1ccc(-c2ccncc2NC(=O)c2c(N)nn3cc(F)cnc23)cn1` [I-C-27, 2-amino-6-fluoro-N-(6-methoxy-[3,4′-bipyridin]-3′-yl)pyrazolo[1,5-a]pyrimidine-3-carboxamide], the Ki is 10 to 1000 nM.

On to `Nc1nn2cc(F)cnc2c1C(=O)Nc1cncc(F)c1N1CCN(C(=O)C2CCOC2)CC1` (centres unmarked) [I-N-274, 2-amino-6-fluoro-N-(5-fluoro-4-(4-(tetrahydrofuran-3-carbonyl)piperazin-1-yl)pyridin-3-yl)pyrazolo[1,5-a]pyrimidine-3-carboxamide], for which the Ki lay in the range of 10 to 1000 nM.

As to `CN(C)CCCN(C)C(=O)C1CCN(c2c(F)cncc2NC(=O)c2c(N)nn3cc(F)cnc23)CC1` [I-G-16, 2-amino-N-(4-(4-((3-(dimethylamino)propyl)(methyl)carbamoyl)piperidin-1-yl)-5-fluoropyridin-3-yl)-6-fluoropyrazolo[1,5-a]pyrimidine-3-carboxamide], the Ki lay within 10 to 1000 nM.

As to `CC1CN(c2ccncc2NC(=O)c2c(N)nn3cc(Cl)cnc23)CCN1C` (centres unmarked) [I-N-54, 2-amino-6-chloro-N-(4-(3,4-dimethylpiperazin-1-yl)pyridin-3-yl)pyrazolo[1,5-a]pyrimidine-3-carboxamide], the Ki is 10 to 1000 nM.

Consider `CS(=O)(=O)CC1CCN(c2ccncc2NC(=O)c2c(N)nn3cc(F)cnc23)CC1` [I-N-215, 2-amino-6-fluoro-N-(4-(4-((methylsulfonyl)methyl)piperidin-1-yl)pyridin-3-yl)pyrazolo[1,5-a]pyrimidine-3-carboxamide], for which the Ki fell in the range of 10 to 1000 nM.

Turning to `N#CCc1cnc2c(C(=O)Nc3cnccc3N3CCC(O)CC3)c(N)nn2c1` [I-N-83, 2-amino-6-(cyanomethyl)-N-(4-(4-hydroxypiperidin-1-yl)pyridin-3-yl)pyrazolo[1,5-a]pyrimidine-3-carboxamide], the Ki was below 10 nM.

As for `Nc1nn2cc(Cl)cnc2c1C(=O)Nc1cnccc1N1CCN2CCC[C@H]2C1` [I-N-71, (S)-2-amino-6-chloro-N-(4-(hexahydropyrrolo[1,2-a]pyrazin-2(1H)-yl)pyridin-3-yl)pyrazolo[1,5-a]pyrimidine-3-carboxamide], the Ki is 10 to 1000 nM.

Consider `Nc1nn2cc(F)cnc2c1C(=O)Nc1cncc(Cl)c1N1CCC(O)C1` (centres unmarked) [I-N-284, 2-amino-N-(5-chloro-4-(3-hydroxypyrrolidin-1-yl)pyridin-3-yl)-6-fluoropyrazolo[1,5-a]pyrimidine-3-carboxamide], for which the Ki lay within 10 to 1000 nM.

Take `C[C@@H]1CN(C(=O)C2CCN(c3c(F)cncc3NC(=O)c3c(N)nn4cc(F)cnc34)CC2)CCN1C` [I-G-50, (R)-2-amino-N-(4-(4-(3,4-dimethylpiperazine-1-carbonyl)piperidin-1-yl)-5-fluoropyridin-3-yl)-6-fluoropyrazolo[1,5-a]pyrimidine-3-carboxamide]: the Ki is 10 to 1000 nM.

For `CCN1CCN(C(=O)C2CCN(c3c(F)cncc3NC(=O)c3c(N)nn4cc(F)cnc34)CC2)CC1` [I-G-9, 2-amino-N-(4-(4-(4-ethylpiperazine-1-carbonyl)piperidin-1-yl)-5-fluoropyridin-3-yl)-6-fluoropyrazolo[1,5-a]pyrimidine-3-carboxamide], the Ki was 10 to 1000 nM.

As for `Nc1nn2cc(F)cnc2c1C(=O)Nc1cnccc1-c1ccc(C(=O)N2CCNCC2)cc1` [I-C-44, 2-amino-6-fluoro-N-(4-(4-(piperazine-1-carbonyl)phenyl)pyridin-3-yl)pyrazolo[1,5-a]pyrimidine-3-carboxamide], the Ki lay in the range of 10 to 1000 nM.

As to `Cn1nccc1-c1ccncc1NC(=O)c1c(N)nn2cc(F)cnc12` [I-C-57, 2-amino-6-fluoro-N-(4-(1-methyl-1H-pyrazol-5-yl)pyridin-3-yl)pyrazolo[1,5-a]pyrimidine-3-carboxamide], the Ki fell in the range of 10 to 1000 nM.

With `Nc1nn2cc(F)cnc2c1C(=O)Nc1cnccc1-c1ccnnc1` [I-C-26, 2-amino-6-fluoro-N-(4-(pyridazin-4-yl)pyridin-3-yl)pyrazolo[1,5-a]pyrimidine-3-carboxamide], the Ki lay within 10 to 1000 nM.

For the molecule `N#CCc1cnc2c(C(=O)Nc3cnccc3N3CCC(N)CC3)c(N)nn2c1` [I-N-2, 2-amino-N-(4-(4-aminopiperidin-1-yl)pyridin-3-yl)-6-(cyanomethyl)pyrazolo[1,5-a]pyrimidine-3-carboxamide], the Ki lay within 10 to 1000 nM.

`CN1CCC(Oc2ccncc2NC(=O)c2c(N)nn3cc(CC#N)cnc23)CC1` [I-O-23, 2-amino-6-(cyanomethyl)-N-(4-((1-methylpiperidin-4-yl)oxy)pyridin-3-yl)pyrazolo[1,5-a]pyrimidine-3-carboxamide]: the Ki was in the range of 10 to 1000 nM.

In the case of `Nc1nn2cc(F)cnc2c1C(=O)Nc1cncc(F)c1N1CCN2C(=O)CCC[C@@H]2C1` [I-N-280, (R)-2-amino-6-fluoro-N-(5-fluoro-4-(6-oxohexahydro-1H-pyrido[1,2-a]pyrazin-2(6H)-yl)pyridin-3-yl)pyrazolo[1,5-a]pyrimidine-3-carboxamide], the Ki lay in the range of 10 to 1000 nM.

On to `Nc1nn2cc(Cl)cnc2c1C(=O)Nc1cnccc1N1CCN2CCC[C@@H]2C1` [I-N-65, (R)-2-amino-6-chloro-N-(4-(hexahydropyrrolo[1,2-a]pyrazin-2(1H)-yl)pyridin-3-yl)pyrazolo[1,5-a]pyrimidine-3-carboxamide], for which the Ki fell in the range of 10 to 1000 nM.

Consider `N#CCc1cnc2c(C(=O)Nc3cnccc3N3CCCC3)c(N)nn2c1` [I-N-77, 2-amino-6-(cyanomethyl)-N-(4-(pyrrolidin-1-yl)pyridin-3-yl)pyrazolo[1,5-a]pyrimidine-3-carboxamide], for which the Ki lay in the range of 10 to 1000 nM.

For the molecule `Nc1nn2cc(Cl)cnc2c1C(=O)Nc1cnccc1OC1CC2(CNC2)C1` [I-O-72, N-(4-(2-azaspiro[3.3]heptan-6-yloxy)pyridin-3-yl)-2-amino-6-chloropyrazolo[1,5-a]pyrimidine-3-carboxamide], the Ki fell in the range of 10 to 1000 nM.

Consider `Nc1nn2cc(Cl)cnc2c1C(=O)Nc1cnccc1N1CCC(N2CCOCC2)CC1` [I-N-104, 2-amino-6-chloro-N-(4-(4-morpholinopiperidin-1-yl)pyridin-3-yl)pyrazolo[1,5-a]pyrimidine-3-carboxamide], for which the Ki is 10 to 1000 nM.

As for `CN1CCN(C(=O)C2(C)CCN(c3c(F)cncc3NC(=O)c3c(N)nn4cc(F)cnc34)CC2)CC1` [I-G-54, 2-amino-6-fluoro-N-(5-fluoro-4-(4-methyl-4-(4-methylpiperazine-1-carbonyl)piperidin-1-yl)pyridin-3-yl)pyrazolo[1,5-a]pyrimidine-3-carboxamide], the Ki fell in the range of 10 to 1000 nM.
